This note sets out measurements from patent publication US10538498B2, “1,3,4-oxadiazole sulfonamide derivative compounds as histone deacetylase 6 inhibitor, and the pharmaceutical composition comprising the same” (Chong Kun Dang Pharmaceutical Corp., priority 2015, dated 2020).

In the experiment the target is T1, human recombinant HDAC6 (Homo sapiens, UniProt Q9UBN7).
T1 construct: purchased Calbiochem 382180
T1 sequence (Q9UBN7 1-1215): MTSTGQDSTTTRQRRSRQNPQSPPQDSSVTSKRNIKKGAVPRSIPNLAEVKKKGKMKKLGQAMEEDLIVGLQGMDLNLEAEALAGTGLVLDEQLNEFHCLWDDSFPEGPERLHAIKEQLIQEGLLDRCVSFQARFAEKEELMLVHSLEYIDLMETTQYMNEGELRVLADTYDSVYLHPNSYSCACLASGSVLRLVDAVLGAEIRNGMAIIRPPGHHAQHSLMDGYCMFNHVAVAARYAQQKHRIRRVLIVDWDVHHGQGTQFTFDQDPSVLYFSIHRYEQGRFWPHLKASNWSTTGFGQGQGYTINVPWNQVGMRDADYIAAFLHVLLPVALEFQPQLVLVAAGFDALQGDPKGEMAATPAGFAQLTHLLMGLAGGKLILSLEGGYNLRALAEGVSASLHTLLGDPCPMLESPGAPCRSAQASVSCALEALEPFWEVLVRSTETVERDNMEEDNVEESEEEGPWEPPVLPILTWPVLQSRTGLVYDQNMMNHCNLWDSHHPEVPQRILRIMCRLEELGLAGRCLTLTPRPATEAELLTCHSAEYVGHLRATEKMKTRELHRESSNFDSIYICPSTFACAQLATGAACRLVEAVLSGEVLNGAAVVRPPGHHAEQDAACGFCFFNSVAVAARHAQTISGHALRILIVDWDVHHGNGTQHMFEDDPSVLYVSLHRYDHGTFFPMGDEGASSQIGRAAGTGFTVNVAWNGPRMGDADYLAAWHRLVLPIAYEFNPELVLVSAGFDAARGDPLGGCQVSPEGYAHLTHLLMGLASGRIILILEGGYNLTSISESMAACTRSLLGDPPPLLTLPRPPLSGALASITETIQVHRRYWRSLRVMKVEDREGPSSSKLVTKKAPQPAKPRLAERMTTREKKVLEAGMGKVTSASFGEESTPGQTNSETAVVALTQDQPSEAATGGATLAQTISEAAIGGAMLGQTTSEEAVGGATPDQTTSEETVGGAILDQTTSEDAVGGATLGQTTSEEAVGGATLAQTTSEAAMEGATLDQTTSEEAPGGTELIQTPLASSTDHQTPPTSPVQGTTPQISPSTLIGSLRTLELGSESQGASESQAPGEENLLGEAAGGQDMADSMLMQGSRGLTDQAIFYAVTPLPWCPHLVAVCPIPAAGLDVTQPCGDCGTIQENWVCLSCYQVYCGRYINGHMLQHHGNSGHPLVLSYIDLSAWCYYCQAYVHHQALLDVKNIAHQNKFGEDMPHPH
Nature of the experiment: HDAC6 enzyme activity inhibition assay (HDAC Fluorimetric Drug Discovery Kit). It is filed as biochemical. The following applies: for HDAC6 selectivity (fold): HDAC1 vs HDAC6; for IC50: same protocol as the HDAC1 enzyme activity test. The essentials:
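Both isoforms are run by an identical fluorimetric protocol: deacetylation of 10 μM Fluor de Lys-SIRT1 substrate by 0.3 μg recombinant enzyme over 60 min at 30° C, in the presence of 5-fold compound dilutions. Signal is developed for 30 min and read at Ex 360/Em 460 to derive IC50.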

What is called IC50 is the concentration needed to halve the response being measured. For the molecule `O=S(=O)(CCN1CCC(Cc2ccccc2)CC1)N(Cc1ccc(-c2nnc(C(F)F)o2)cc1)c1ccccc1` [Compound 11762, 2-(4-benzylpiperidin-1-yl)-N-(4-(5-(difluoromethyl)-1,3,4-oxadiazol-2-yl)benzyl)-N-phenylethane-1-sulfonamide], the “HDAC6 selectivity (fold)” value was found to be 100 fold and the IC50 was found to be 1000 nM.

Regarding `O=S(=O)(CCN1CCC(N2CCOCC2)CC1)N(Cc1ccc(-c2nnc(C(F)F)o2)cc1)c1ccccc1` [Compound 11763, N-(4-(5-(difluoromethyl)-1,3,4-oxadiazol-2-yl)benzyl)-2-(4-morpholinopiperidin-1-yl)-N-phenylethane-1-sulfonamide], the “HDAC6 selectivity (fold)” value is listed as 948 fold and the concentration for half-maximal inhibition (IC50) turned out to be 105 nM.

In the case of `Cc1noc(C2CCN(CCS(=O)(=O)N(Cc3ccc(-c4nnc(C(F)F)o4)cc3)c3ccccc3)CC2)n1` [Compound 11764, N-(4-(5-(difluoromethyl)-1,3,4-oxadiazol-2-yl)benzyl)-2-(4-(3-methyl-1,2,4-oxadiazol-5-yl)piperidin-1-yl)-N-phenylethane-1-sulfonamide], the “HDAC6 selectivity (fold)” value was 731 fold and the IC50 worked out at 137 nM.

Take `CCN(CCS(=O)(=O)N(Cc1ccc(-c2nnc(C(F)F)o2)cc1)c1ccccc1)Cc1ccccc1` [Compound 11765, 2-(benzyl(ethyl)amino)-N-(4-(5-(difluoromethyl)-1,3,4-oxadiazol-2-yl)benzyl)-N-phenylethane-1-sulfonamide]: the “HDAC6 selectivity (fold)” value stood at 526 fold and the IC50 is 190 nM.

In the case of `O=S(=O)(CCN1CCN(c2ccccc2)CC1)N(Cc1ccc(-c2nnc(C(F)F)o2)cc1)c1ccccc1` [Compound 11766, N-(4-(5-(difluoromethyl)-1,3,4-oxadiazol-2-yl)benzyl)-N-phenyl-2-(4-phenylpiperazin-1-yl)ethane-1-sulfonamide], the “HDAC6 selectivity (fold)” value is recorded as 319 fold and the half-maximal inhibitory concentration (IC50) is 313 nM.

Consider `O=S(=O)(CCN1CCN(c2ccccn2)CC1)N(Cc1ccc(-c2nnc(C(F)F)o2)cc1)c1ccccc1` [Compound 11767, N-(4-(5-(difluoromethyl)-1,3,4-oxadiazol-2-yl)benzyl)-N-phenyl-2-(4-(pyridin-2-yl)piperazin-1-yl)ethane-1-sulfonamide], for which the “HDAC6 selectivity (fold)” value is recorded as 844 fold and the IC50 worked out at 118 nM.

Regarding `O=S(=O)(CCN1CCN(c2ccncc2)CC1)N(Cc1ccc(-c2nnc(C(F)F)o2)cc1)c1ccccc1` [Compound 11768, N-(4-(5-(difluoromethyl)-1,3,4-oxadiazol-2-yl)benzyl)-N-phenyl-2-(4-(pyridin-4-yl)piperazin-1-yl)ethane-1-sulfonamide], the “HDAC6 selectivity (fold)” value was determined as 2610 fold and the half-inhibitory concentration (IC50) came out at 38.3 nM.

For `O=S(=O)(CCN1CCN(c2ccc(F)cc2)CC1)N(Cc1ccc(-c2nnc(C(F)F)o2)cc1)c1ccccc1` [Compound 11769, N-(4-(5-(difluoromethyl)-1,3,4-oxadiazol-2-yl)benzyl)-2-(4-(4-fluorophenyl)piperazin-1-yl)-N-phenylethane-1-sulfonamide], the “HDAC6 selectivity (fold)” value was 359 fold and the IC50 was 278 nM.

`O=S(=O)(CCN1CCN(c2ccc(Cl)c(Cl)c2)CC1)N(Cc1ccc(-c2nnc(C(F)F)o2)cc1)c1ccccc1` [Compound 11770, 2-(4-(3,4-dichlorophenyl)piperazin-1-yl)-N-(4-(5-(difluoromethyl)-1,3,4-oxadiazol-2-yl)benzyl)-N-phenylethane-1-sulfonamide]: the “HDAC6 selectivity (fold)” value came out at 112 fold and the IC50 amounted to 886 nM.

As for `O=S(=O)(CCN1CCN(CCc2ccccc2)CC1)N(Cc1ccc(-c2nnc(C(F)F)o2)cc1)c1ccccc1` [Compound 11771, N-(4-(5-(difluoromethyl)-1,3,4-oxadiazol-2-yl)benzyl)-2-(4-phenethylpiperazin-1-yl)-N-phenylethane-1-sulfonamide], the “HDAC6 selectivity (fold)” value came to 311 fold and the IC50 was determined as 321 nM.

Consider `O=S(=O)(CCN1CCN(CCc2ccncc2)CC1)N(Cc1ccc(-c2nnc(C(F)F)o2)cc1)c1ccccc1` [Compound 11772, N-(4-(5-(difluoromethyl)-1,3,4-oxadiazol-2-yl)benzyl)-N-phenyl-2-(4-(2-(pyridin-4-yl)ethyl)piperazin-1-yl)ethane-1-sulfonamide], for which the “HDAC6 selectivity (fold)” value is given as 2057 fold and the half-inhibitory concentration (IC50) is 48.6 nM.

As to `O=S(=O)(CCN1CCN(C/C=C/c2ccccc2)CC1)N(Cc1ccc(-c2nnc(C(F)F)o2)cc1)c1ccccc1` [Compound 11773, 2-(4-cinnamylpiperazin-1-yl)-N-(4-(5-(difluoromethyl)-1,3,4-oxadiazol-2-yl)benzyl)-N-phenylethane-1-sulfonamide], the “HDAC6 selectivity (fold)” value was found to be 370 fold and the 50% inhibitory concentration (IC50) amounted to 270 nM.

With `CS(=O)(=O)N(Cc1ccc(-c2nnc(C(F)F)o2)cc1F)c1ccc2ncoc2c1` [Compound 11774, N-(benzo[d]oxazol-6-yl)-N-(4-(5-(difluoromethyl)-1,3,4-oxadiazol-2-yl)-2-fluorobenzyl)methanesulfonamide], the “HDAC6 selectivity (fold)” value turned out to be 1503 fold and the IC50 was found to be 66.5 nM.

`CS(=O)(=O)N(Cc1ccc(-c2nnc(C(F)F)o2)cc1F)c1ccc2ncsc2c1` [Compound 11775, N-(benzo[d]thiazol-6-yl)-N-(4-(5-(difluoromethyl)-1,3,4-oxadiazol-2-yl)-2-fluorobenzyl)methanesulfonamide]: the “HDAC6 selectivity (fold)” value is on record as 2906 fold and the IC50 came to 34.4 nM.

`CS(=O)(=O)N(Cc1ccc(-c2nnc(C(F)F)o2)cc1F)c1nncs1` [Compound 11776, N-(4-(5-(difluoromethyl)-1,3,4-oxadiazol-2-yl)-2-fluorobenzyl)-N-(1,3,4-thiadiazol-2-yl)methanesulfonamide]: the “HDAC6 selectivity (fold)” value was determined as 113 fold and the IC50 amounted to 882 nM.

For `CCN1CC(N2CCC(S(=O)(=O)N(Cc3ccc(-c4nnc(C(F)F)o4)cc3)c3cccc(Cl)c3)CC2)C1` [Compound 11777, N-(3-chlorophenyl)-N-(4-(5-(difluoromethyl)-1,3,4-oxadiazol-2-yl)benzyl)-1-(1-ethylazetidin-3-yl)piperidine-4-sulfonamide], the “HDAC6 selectivity (fold)” value worked out at 3472 fold and the IC50 was determined as 28.8 nM.

Regarding `CC(C)N1CC(N2CCC(S(=O)(=O)N(Cc3ccc(-c4nnc(C(F)F)o4)cc3)c3cccc(Cl)c3)CC2)C1` [Compound 11778, N-(3-chlorophenyl)-N-(4-(5-(difluoromethyl)-1,3,4-oxadiazol-2-yl)benzyl)-1-(1-isopropylazetidin-3-yl)piperidine-4-sulfonamide], the “HDAC6 selectivity (fold)” value was determined as 2724 fold and the IC50 stood at 36.7 nM.

As to `CC(=O)N1CC(N2CCC(S(=O)(=O)N(Cc3ccc(-c4nnc(C(F)F)o4)cc3)c3cccc(Cl)c3)CC2)C1` [Compound 11779, 1-(1-acetylazetidin-3-yl)-N-(3-chlorophenyl)-N-(4-(5-(difluoromethyl)-1,3,4-oxadiazol-2-yl)benzyl)piperidine-4-sulfonamide], the “HDAC6 selectivity (fold)” value is reported as 2493 fold and the half-inhibitory concentration (IC50) amounted to 40.1 nM.

Regarding `CCC(=O)N1CC(N2CCC(S(=O)(=O)N(Cc3ccc(-c4nnc(C(F)F)o4)cc3)c3cccc(Cl)c3)CC2)C1` [Compound 11780, N-(3-chlorophenyl)-N-(4-(5-(difluoromethyl)-1,3,4-oxadiazol-2-yl)benzyl)-1-(1-propionylazetidin-3-yl)piperidine-4-sulfonamide], the “HDAC6 selectivity (fold)” value was found to be 1893 fold and the IC50 stood at 52.8 nM.

For the molecule `CC(C)N1CC(N2CCC(S(=O)(=O)N(Cc3ccc(-c4nnc(C(F)F)o4)cn3)c3cccc(Cl)c3)CC2)C1` [Compound 11781, N-(3-chlorophenyl)-N-((5-(5-(difluoromethyl)-1,3,4-oxadiazol-2-yl)pyridin-2-yl)methyl)-1-(1-isopropylazetidin-3-yl)piperidine-4-sulfonamide], the “HDAC6 selectivity (fold)” value was determined as 5319 fold and the 50% inhibitory concentration (IC50) came out at 18.8 nM.
